This passage reports Emax and EC50 results from patent US20250388574A1, “HETEROCYCLIC COMPOUNDS AS TRIGGERING RECEPTOR EXPRESSED ON MYELOID CELLS 2 AGONISTS AND METHODS OF USE” (AMGEN INC., priority 2020, published 2025).

As usually defined, the EC50 is the midpoint of the concentration-response curve.

The test deals with hTREM2 (Homo sapiens, UniProt Q9NZC2). The experiment in a line: Phospho-Syk AlphaScreen/AlphaLISA assay in TREM2 and DAP12 overexpressing HEK293 cells (Example A1). More on the design: expressed in transfected cells. Conditions: HEK293 cells; for EC50: read-out: hTREM2 EC50. In kind it is cell-based. The protocol:
Pharmacological measurements of TREM2 signaling through DAP12 were made with TREM2 and DAP12 overexpressing HEK293 cells stable cell lines that had been single-cell cloned (“TREM2/DAP12-HEK”). The readout of the TREM2 signaling utilized Perkin Elmer AlphaScreen/AlphaLISA technology monitoring the phosphorylation levels of the Syk kinase. TREM2/DAP12-HEK cell lines were cultured in DMEM-F12 (Corning 10-092-CM) supplemented with 1× Penicillin/Streptomycin (Corning 30-002-CI), 1× GlutaMAX (Gibco 35050-061), and 10% Fetal Bovine Serum (Life Technologies 10099) referred to as “HEK Culture Medium”. Suspensions of TREM2/DAP12-HEK cells were prepared in HEK Culture Medium and dispensed into 384-well poly-D-lysine coated microplates (Corning 354661) at a density of 20,000 cells/well using a Multidrop Combi peristaltic microplate dispenser (Thermo), 25 uL volume of cell suspension/well. Plates containing cells were then incubated for 20 hours in a humidified cell culture incubator at 37° C. with 5% CO2 (Thermo). […] Assay Buffer contained diluted test articles (in 1% final DMSO concentration for compounds) or 100 nM anti-human/mouse TREM2 antibody (R&D Systems MAB17291) as a positive control, 100 nM or rat IgG2B isotype Ab as a negative control (R&D Systems MAB0061). Incubated the plates with test articles and controls for 45 minutes at room temperature and then aspirated/removed the medium from each well of the plates. Used a Multidrop Combi peristaltic liquid handler (Thermo) to dispense 15 uL/well of “Cell Lysis Immunoassay Buffer”. The Cell Lysis Immunoassay Buffer contained M-PER Mammalian Protein Extraction Reagent (Pierce/ThermoFisher 78505), 1× Halt Phosphatase Inhibitor Cocktail (ThermoFisher #78427), 0.1875 nM anti-phospho-Syk ([…]/526) ([…]) rabbit mAb (Cell Signaling Technologies catalog #2710), and 1.5 nM biotinylated Mouse anti-human Syk (4D10) antibody (BD Biosciences, catalog #624008). Incubated plates for 1 hour at room temperature after the addition of the Cell Lysis Immunoassay Buffer. Used the Multidrop Combi liquid handler to dispense 15 μL of AlphaScreen Acceptor Bead Solution containing 7.5 μg/mL anti-rabbit IgG (Fc specific) AlphaLISA Acceptor Beads (Perkin Elmer A[…]) in 1× Immunoassay buffer (Perkin Elmer A[…]) to each well of the microplates. Incubated plates for 2 hours at room temperature. Following the incubation with the AlphaLISA Acceptor Bead Solution, used a Multidrop Combi liquid handler (Thermo) to dispense 15 μL of AlphaScreen Donor Bead Solution containing 30 μg/mL of AlphaScreen Streptavidin Donor beads (Perkin Elmer 6760002B) in 1× Immunoassay buffer (Perkin Elmer A[…]) to each well of the microplates. Incubated microplates for 2 hours protected from light sources as the AlphaScreen reagents are light sensitive. Once the final incubation was completed, acquired AlphaScreen signal from the donor and acceptor beads using an Envision high throughput multi-modal microplate reader (Perkin Elmer) calibrated to the plate type with the AlphaScreen mirror and filter-set in 384-well mode, 680 nanometer excitation wavelength. The total measurement time per well was 550 milliseconds with a 180 millisecond excitation time. After reading the AlphaScreen signal for each well of the microplates, on a plate-by-plate basis, each raw test article well value (x) was normalized to a Percent of Control (“POC”) value using the following formula: […] Each plate contained 12 of each type of control wells that were used to generate the mean values. For concentration response curve analysis with test articles tested at various concentrations, the % of activation values were analyzed with 4 Parameter Logistic or Sigmoidal Dose-Response Models using GeneData Screener (GeneData, AG) or GraphPad Prism 7 (Graphpad Software, Inc.). […] This assay may be used to test any of the compounds described herein to assess and characterize a compound's ability to act as an agonist of TREM2.

Sequence of hTREM2 (Q9NZC2 19-230): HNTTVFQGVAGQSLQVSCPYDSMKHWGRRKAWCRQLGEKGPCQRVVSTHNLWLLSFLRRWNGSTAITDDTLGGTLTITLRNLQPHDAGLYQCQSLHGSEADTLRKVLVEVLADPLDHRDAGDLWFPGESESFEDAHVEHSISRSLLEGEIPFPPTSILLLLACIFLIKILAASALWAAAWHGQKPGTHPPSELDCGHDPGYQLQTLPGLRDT
Sequence of hTREM2 (O43914 22-113 partner): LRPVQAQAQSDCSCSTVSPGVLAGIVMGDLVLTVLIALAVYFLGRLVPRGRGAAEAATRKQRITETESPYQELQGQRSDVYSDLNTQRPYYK

In the case of `Cc1nc2cc(N3Cc4cccnc4C3)nc(-c3ccc(Cl)cc3F)c2c(=O)n1C` [Example 247, 5-(4-chloro-2-fluorophenyl)-7-(5,7-dihydro-6H-pyrrolo[3,4-b]pyridin-6-yl)-2,3-dimethylpyrido [4,3-d]pyrimidin-4(3H)-one], the Emax entry was “++ (Emax>100 and ≤200)”; the EC50 lay within 3000 to 100000 nM.

As for `Cc1nc2cc(N3CCO[C@@H](c4cnn(C5CC5)c4)C3)nc(-c3ccc(Cl)cc3F)c2c(=O)n1C` [Example 136, 5-(4-chloro-2-fluorophenyl)-7-((2S)-2-(1-cyclopropyl-1H-pyrazol-4-yl)-4-morpholinyl)-2,3-dimethylpyrido[4,3-d]pyrimidin-4(3H)-one], the Emax result is reported as “++++ (Emax>300)” and the EC50 was under 50 nM.

`CCCn1c(C)nc2cc(N3CCO[C@@H](C(F)F)C3)nc(-c3ccc(Cl)cc3F)c2c1=O` [Example 156, 5-(4-chloro-2-fluorophenyl)-7-((2R)-2-(difluoromethyl)-4-morpholinyl)-2-methyl-3-propylpyrido[4,3-d]pyrimidin-4(3H)-one]: the Emax entry was “++++ (Emax>300)” and the EC50 is 500 to 3000 nM.

Regarding `Cc1nc2cc(N3C[C@H](C)O[C@@H](C4CC4)C3)nc(-c3ccc(Cl)cc3F)c2c(=O)n1C` (single isomer, unassigned) [Example 35], the Emax result was “+++ (Emax>200 and ≤300)”; the EC50 fell in the range of 500 to 3000 nM.

As for `Cc1nc2cc(N3CCO[C@@H](c4cnn(C)c4)C3)nc(C3CCCC3)c2c(=O)n1C` [Example 160, 5-cyclopentyl-2,3-dimethyl-7-((2S)-2-(1-methyl-1H-pyrazol-4-yl)-4-morpholinyl)pyrido[4,3-d]pyrimidin-4(3H)-one], the Emax result was “+++ (Emax>200 and ≤300)”; the EC50 is 500 to 3000 nM.

For the compound `Cc1nc2cc(N3CC[C@H](c4cccnc4)C3)nc(-c3ccc(Cl)cc3F)c2c(=O)n1C` [Example 261, (R)-5-(4-chloro-2-fluorophenyl)-2,3-dimethyl-7-(3-(pyridin-3-yl)pyrrolidin-1-yl)pyrido[4,3-d]pyrimidin-4(3H)-one], the Emax result is recorded as “++++ (Emax>300)” and the EC50 lay within 3000 to 100000 nM.

As for `COc1cc([C@H]2C[C@H](c3cc4nc(C)n(C)c(=O)c4c(-c4ccc(Cl)cc4F)n3)CCO2)ccn1` (single isomer, unassigned) [Example 174], the Emax result is “++++ (Emax>300)” and the EC50 was 50 to 500 nM.

For `Cc1nc2cc([C@@H]3CCO[C@@H](c4cccnc4)C3)nc(-c3ccc(Cl)cc3F)c2c(=O)n1C` (relative stereo) [Example 176, 5-(4-chloro-2-fluorophenyl)-2,3-dimethyl-7-((2R,4R)-2-(3-pyridinyl)tetrahydro-2H-pyran-4-yl)pyrido[4,3-d]pyrimidin-4(3H)-one and 5-(4-chloro-2-fluorophenyl)-2,3-dimethyl-7-((2S,4S)-2-(3-pyridinyl)tetrahydro-2H-pyran-4-yl)pyrido[4,3-d]pyrimidin-4(3H)-one], the Emax entry is listed as “++++ (Emax>300)” and the 50% effective concentration (EC50) lay within 500 to 3000 nM.

Turning to `Cc1nc2cc(N3CCO[C@@H](c4cccnc4)C3)nc(-c3ccc(Cl)cc3F)c2c(=O)n1C` (single isomer, unassigned) [Example 46], the Emax entry is recorded as “++++ (Emax>300)” and the EC50 was in the range of 50 to 500 nM.

Take `Cc1nc2cc(N3CCO[C@@H](c4cnn(C)c4)C3)nc(-c3ccc(Cl)c(F)c3F)c2c(=O)n1C` [Example 14, 5-(4-chloro-2,3-difluorophenyl)-2,3-dimethyl-7-((2S)-2-(1-methyl-1H-pyrazol-4-yl)-4-morpholinyl) pyrido[4,3-d]pyrimidin-4(3H)-one]: the Emax entry is reported as “++++ (Emax>300)” and the concentration giving a half-maximal response (EC50) fell in the range of 50 to 500 nM.

Turning to `COc1ccc([C@H]2CN(c3cc4nc(C)n(C)c(=O)c4c(-c4ccc(Cl)cc4F)n3)CCO2)cc1` (single isomer, unassigned) [Example 78], the Emax entry is listed as “++++ (Emax>300)” and the EC50 lay within 50 to 500 nM.
